Reference: patent US8173620B2, “BHQ-caged nucleotide probes photolysable by two-photon excitation” (University of Georgia Research Foundation, Inc., priority 2008, dated 2012)
Like-named read-outs stand apart in the source and are kept apart here. Marks after values point to notes of the source that are not given here.

Legend:
[1] = literature value; cited from earlier work
[2] = UV absorption of quinoline chromophores in KMOPS buffer; format: physicochemical; conditions: pH 7.2
Description: It has two absorptive bands beyond 300 nm, one at 320 nm and the other at 370 nm. The 370 nm absorption band arises from the phenolate form of the BHQ skeleton, and the 320 nm absorption band is from the phenol form. […] The λmax of BHQ-ATP (159) is 376 nm, and the extinction coefficient at this wavelength is 1300 M^−1cm^−1. […]

[3] = Fluorescence spectra of quinoline chromophores in KMOPS; format: physicochemical; conditions: pH 7.2, excitation 365 nm
Method: The fluorescence spectra of BHQ-OAc, NHQ-OAc, CyHQ-OAc, CHQ-OAc, DMAQ-OAc, DMAQ-Cl-OAc, and TQ-OAc (15 μM in KMOPS, λex=365 nm) are shown in FIG. 18.

[4] = Quantum efficiency for one-photon photolysis (365 nm, HPLC); format: physicochemical; conditions: KMOPS, pH 7.2; for Qu (one-photon uncaging quantum efficiency): measured at 365 nm; for Sensitivity Qu × e: one-photon excitation, 365 nm, in M^-1·cm^-1
Method: The quantum efficiency of BHQ-ATP (159) decay and ATP recovery were determined by photolyzing a KMOPS solution of BHQ-ATP (159) (100 μM) with light from a 365 nm lamp through a set of filters that narrowed the band of light to a tight 30 nm range around 365 nm. Aliquots (20 μL) were taken out from the photolysis cuvette after a time interval of 0, 10, 20, 40, 60, or 90 secs, and HPLC analyses of these samples with a reverse phase C18 column and 85% 25 mM KH2PO4 buffer (pH=6.2)/15% methanol solvent system were carried out. The BHQ-ATP (159) peak (retention time=4.2 min.) and ATP peak (retention time=2.8 min.) were recorded and analyzed.
KMOPS-buffered solutions (3 mL) of the substrates (100 μM) in quartz cuvettes (21-Q-10, Starna, Atascadero, Calif.) were irradiated with 365 nm UV light from a mercury lamp (Spectroline SB-100P; Spectronics, Westbury, N.Y.) with a light filter. The spectral output of the lamp after the glass filters (CSO-52 and CS7-60, Ace Glass, Vineland, N.J.) has a band between 350 nm and 380 nm. The duration of each irradiation period ranged from 5 sec to 60 sec. After each period of irradiation, a 20 μL aliquot of the solution was removed for analysis by HPLC, using an external standard method to determine concentrations.
The analytes were eluted isocratically (flow rate of 1 mL/min) with acetonitrile and water containing 0.1% TFA (Table 1). The only exception is that BHQ-caged ATP was eluted with methanol and 25 mM KH2PO4 buffer (pH=6.2). The progress curves were plotted and fit to a single exponenial decay curve. The uncaging quantum efficiency (Qu) of each chromophore was calculated using Qu=(Iσt90%)^−1, where I is the radiant power in einstein·cm^−2s^−1, σ is the decadic extinction coefficient (10^3×ε, molar extinction coefficient) in cm^−2·mol^−1, and t90% is the irradiation time in s for 90% conversion to product (as described by Adams et al. (J. Am. Chem. Soc. (1988) 110: 3212-3220) incorporated herein by reference in its entirety). The UV intensity of the lamp was measured by potassium ferrioxalate actinometry (as described by Hatchard & Parker (Proc. Roy. Soc. London, Ser. A (1956) 235: 518-536) incorporated herein by reference in its entirety) in the same setup. ATP was monitored for its formation during the process, plotted, and fitted to an exponential rise to max curve.

[5] = Two-photon uncaging action cross-section (740 nm, Tsien's method, fluorescein reference); format: physicochemical; conditions: for δu (two-photon uncaging action cross-section): KMOPS, pH 7.2, measured at 740 nm; for λa (calculated 2-photon absorbance cross-section): calculated from du = da × Qu
Method: BHQ-ATP (159) (100 μM in KMOPS, pH=7.2) was photolyzed with a Chameleon Ultra II laser at 740 nm in 25-μL aliquots. The irradiation time intervals of the pulsed laser were 0, 5, 10, 20, and 40 min. Three samples of each time interval were collected and analyzed by HPLC using the same method as in the one-photon photolysis. Using Tsien's method of determining two-photon uncaging action cross-section with a fluorescence reference solution, the two-photon uncaging action cross-section of BHQ-ATP (159) was measured to be 0.17 GM. The ATP yield was about 40%.
Measurements were carried out in microcuvettes (10×1×1 mm illuminated dimensions) with an effective filling volume of 20 μL (26.10F-Q-10, Starna, Atascadero, Calif.). The IR laser used was from a fs-pulsed and mode-locked Ti:sapphire laser (Mira 900 pumped by a Verdi, Coherent, Santa Clara, Calif. or a Chameleon Ultra II) focused on the center of the cuvette chamber with a 25-mm focal length lens optimized for IR lasers (06LXP003/076, Melles-Griot, Irvine, Calif.). The pulse width of the laser was 144 fs for Mira 900. The laser beam was attenuated by passing the beam through an electro-optical modulator or a ½-waveplate and polarizing beamsplitter cube so that the average power exiting the apparatus was 300-350 mW.
Successive aliquots (25 μL) of each caged compound in KMOPS were placed into the cuvette and irradiated for 0, 5, 10, 20, and 40 min. Each aliquot was analyzed by HPLC to determine the concentration of the remaining caged compound as described for determining the uncaging quantum efficiency for one photon photolysis. The progress curves were plotted, and fitted to a single exponential decay curve. The formation of ATP was monitored, plotted, and fitted to a single exponential rise to max curve. For compounds 1c, 2a, 2b, and 3 (τdark<50 h), a correction was made for background dark hydrolysis that occurred while the irradiated samples were waiting for HPLC analysis. The fraction of the decay from hydrolysis in the dark was calculated using the measured dark hydrolysis rate and the waiting time from the end of the experiment until the HPLC injection. This value was subtracted from the total decay (hydrolysis+photolysis) measured by HPLC.
The two-photon uncaging cross-section (δu) was determined using Tsien's method, (as described by Furuta et al., (1999) Proc. Natl. Acad. Sci. U.S.A. 96: 1193-1200 (incorporated herein by reference in its entirety), referencing to fluorescein, a compound with a known fluorescence quantum yield (Qf=0.9) and absorbance cross-section (δa=30 GM at 740 nm), using the following equation: […]
Np is the number of molecules photolyzed per unit time (molecules/s, determined by HPLC analysis of the reaction); φ is the collection efficiency of the detector (SED033 on an IL-1700, International Light, Newburyport, Mass.) used to measure the fluorescence of fluorescein emitted at a right angle to the beam and passed though a 535/45 nm bandpass filter; CF is the concentration of the fluorescein standard (mol/L); <F(t)> is the time averaged fluorescent photon flux (photons/s) of the fluorescein standard collected by the detector; and CS is the initial concentration of the caged compound (mol/L). The light-induced uncaging of —OAc from a variety of caging moieties is illustrated in FIG. 23.

[6] = Dark hydrolysis rate / stability in the dark; format: physicochemical; conditions: KMOPS, pH 7.2, dark
Method: Substrates were dissolved in KMOPS and stored in the dark at room temperature. Samples for HPLC analysis were carried out periodically and injected as described for one-photon photolysis. Data were fit to single exponential decay curves from which the time constant, τ, was calculated.

renal Na,K-ATPase = biological target: T1, renal Na,K-ATPase (Homo sapiens, UniProt P05023); conditions: incubated with renal Na,K-ATPase, Kaplan et al. 1978; cited from earlier work
T1 construct: host or cells: kidney (renal) enzyme, as reported by Kaplan et al. 1978

[7] = literature; cited from earlier work
[8] = KMOPS, pH 7.2; value taken from Fedoryak & Dore, Org. Lett. 2002; cited from earlier work
[9] = KMOPS, pH 7.2; 365 nm; value taken from Fedoryak & Dore, Org. Lett. 2002; cited from earlier work
[10] = KMOPS, pH 7.2; 740 nm; value taken from Fedoryak & Dore, Org. Lett. 2002; cited from earlier work
[11] = KMOPS, pH 7.2; value taken from Fedoryak & Dore, Org. Lett. 2002; cited from earlier work; remark: listed apart in the source

Compound | ε (extinction coefficient at λmax) [2] [M⁻¹ cm⁻¹] | λmax [2] [nm] | λem [3] [nm] | Qu (one-photon uncaging quantum efficiency) [4] | Sensitivity Qu × e [4] | δu (two-photon uncaging action cross-section) [5] [GM] | λa (calculated 2-photon absorbance cross-section) [5] [GM] | τdark (time constant for hydrolysis in the dark) [6] [h] | also measured
CC(OP(=O)(O)OP(=O)(O)OP(=O)(O)OCC1OC(n2cnc3c(N)ncnc32)C(O)C1O)c1ccccc1[N+](=O)[O-] (stereo not drawn) [NPE-ATP, P^3-1-(2-nitrophenyl)ethyl ester of ATP] | – | – | – | – | – | – | – | – | ATP release rate [1]: 118 s⁻¹
CC(=O)OCc1ccc2ccc(O)c(Cl)c2n1 [CHQ-OAc (1c), (8-Chloro-7-hydroxyquinolin-2-yl)methyl acetate] | 2800 | 370 | 492 | 0.10 | 280 | 0.12 | 1.2 | 49 | –
COc1cc(OC)cc(C(OP(=O)(O)OP(=O)(O)OP(=O)(O)OCC2OC(n3cnc4c(N)ncnc43)C(O)C2O)C(=O)c2ccccc2)c1 (stereo not drawn) [DMB-ATP, P^3-[1-(3,5-dimethoxyphenyl)-2-phenyl-2-oxo]ethyl ester of ATP] | – | – | – | – | – | – | – | – | ATP release rate [1]: > 10^5 sec^−1
Nc1ncnc2c1ncn2C1OC(COP(=O)(O)OP(=O)(O)OP(=O)(O)OCc2ccccc2[N+](=O)[O-])C(O)C1O (stereo not drawn) [NB-ATP, 2-nitrobenzyl ester of ATP] | – | – | – | – | – | – | – | – | substrate or inhibitor of Na,K-ATPase before irradiation (renal Na,K-ATPase): neither a substrate nor inhibitor of this enzyme
CC(=O)OCc1ccc2ccc(O)c([N+](=O)[O-])c2n1 [NHQ-OAc (1a), 7-Hydroxy-8-nitroquinolin-2-yl methyl acetate] | 6500 | 350 | – | 0.00 | 0 | 0.00 | – | 278 | –
COc1cc(C(C)OP(=O)(O)OP(=O)(O)OP(=O)(O)OC[C@H]2O[C@@H](n3cnc4c(N)ncnc43)[C@H](O)[C@@H]2O)c([N+](=O)[O-])cc1OC (stereo partly drawn) [DMNPE-ATP] | – | – | – | – | – | – | – | – | λmax [7]: 350 nm
CC(=O)OCc1ccc2ccc(N(C)C)cc2n1 [DMAQ-OAc (2a), (7-(Dimethylamino)quinolin-2-yl)methyl acetate] | 4600 | 368 | 496 | 0.046 | 211 | 0.13 | 2.8 | 31 | –
CC(=O)OCc1cc(Cl)c2ccc(N(C)C)cc2n1 [DMAQ-Cl—OAc (2b), (4-Chloro-7-(dimethylamino)quinolin-2-yl)methyl acetate] | 3300 | 386 | 493 | 0.090 | 234 | 0.47 | 5.2 | 34 | –
CN(C)c1ccc2c(COP(=O)(O)OP(=O)(O)OP(=O)(O)OCC3OC(n4cnc5c(N)ncnc54)C(O)C3O)cc(=O)oc2c1 (stereo not drawn) [DMACM-caged ATP, [7-(dimethylamino)coumarin-4-yl]methyl ATP] | – | – | – | – | – | – | – | – | ATP release rate [1]: 1.6e+09 s⁻¹
CC(=O)OCc1ccc2ccc(O)c(Br)c2n1 [BHQ-OAc] | – | – | 478 | – | 754 | – | 2.0 | – | ε [8]: 2600^g M^−1 · cm^−1; λmax [8]: 369^g nm; Qu (one-photon uncaging quantum efficiency) [9]: 0.29^g; δu (two-photon uncaging action cross-section) [10]: 0.59^g GM; τdark (time constant for hydrolysis in the dark) [11]: 71^g h
CC(=O)OCc1ccc2ccc(O)c(C#N)c2n1 [CyHQ-OAc (1b), (8-Cyano-7-hydroxyquinolin-2-yl)methyl acetate] | 7700 | 364 | 436 | 0.31 | 2387 | 0.32 | 1.0 | 500 | –
